Test results: ChEMBL document CHEMBL4673303, “Heterologous Expression of the Biosynthetic Gene Cluster for Verticilactam and Identification of Analogues” (J Nat Prod, 2020)
Activity calls are given as the source filed them. The calls are words filed in the database; no cut-off is given here.

Assays:
Aspergillus fumigatus = assay: Antimicrobial activity against Aspergillus fumigatus Af293 assessed as reduction in microbial growth up to 70 uM after 48 hrs; type: functional, organism-based; settings: dose microM <=70, time 48.0 hrs
HL-60 = assay: Cytotoxicity against human HL-60 cells assessed as reduction in cell viability up to 70 uM after 48 hrs by WST-8 assay; type: functional, cell-based; settings: dose microM <=70, time 48.0 hrs
Pyricularia oryzae = assay: Antimicrobial activity against Pyricularia oryzae kita-1 assessed as reduction in microbial growth up to 70 uM after 48 hrs; type: functional, organism-based; settings: dose microM <=70, time 48.0 hrs
Candida albicans = assay: Antimicrobial activity against Candida albicans JCM1542 assessed as reduction in microbial growth up to 70 uM after 48 hrs; type: functional, organism-based; settings: dose microM <=70, time 48.0 hrs
Escherichia coli = assay: Antimicrobial activity against Escherichia coli HO141 assessed as reduction in microbial growth up to 70 uM after 24 hrs; type: functional, organism-based; settings: dose microM <=70, time 24.0 hrs
Plasmodium falciparum = assay: Antimalarial activity against Plasmodium falciparum 3D7; type: functional, organism-based
HeLa = assay: Cytotoxicity against human HeLa cells assessed as reduction in cell viability up to 70 uM after 48 hrs by WST-8 assay; type: functional, cell-based; settings: dose microM <=70, time 48.0 hrs
Staphylococcus aureus = assay: Antimicrobial activity against Staphylococcus aureus 209 assessed as reduction in microbial growth up to 70 uM after 24 hrs; type: functional, organism-based; settings: dose microM <=70, time 24.0 hrs
NRK = assay: Cytotoxicity against rat NRK cells infected with ts25 T-class mutant of Rous sarcoma virus Prague strain assessed as reduction in cell viability up to 70 uM after 48 hrs by WST-8 assay; type: functional, cell-based; settings: dose microM <=70, time 48.0 hrs

## C\C1=C/C=C\C=C\[C@H](C)CNC(=O)CC(=O)C[C@@H]2O[C@H]3[C@@H]4[C@@H](C=C[C@H]1[C@H]42)[C@@H](O)C[C@H]3O
Aspergillus fumigatus
  Activity: inactive
HL-60
  Activity: inactive
Pyricularia oryzae
  Activity: inactive
Candida albicans
  Activity: inactive
Escherichia coli
  Activity: inactive
Plasmodium falciparum
  IC50: 12 µM
HeLa
  Activity: inactive
Staphylococcus aureus
  Activity: inactive
NRK
  Activity: inactive
